Our source for the Papp, clearance and bioavailability values is ChEMBL document CHEMBL3588771, “Discovery of 5-Amino-N-(1H-pyrazol-4-yl)pyrazolo[1,5-a]pyrimidine-3-carboxamide Inhibitors of IRAK4” (ACS Med Chem Lett, 2015).

Each structure is given as a SMILES string.

Series [1] can be described thus: in vitro. Conditions: dog, MDCK.
Series [2] in a line: in vivo. As to conditions: rat, plasma, iv, 0.5 mg/kg.
A short description of series [3]: in vivo. As to conditions: rat, po, 1 mg/kg.
A short description of series [4]: in vitro. As to conditions: pig, LLC-PK1.

By Papp is commonly meant the rate of passage across a membrane or cell layer, normalised by area and donor concentration. Low values mean poor permeation, high ones ready permeation. As to `Cn1cc(NC(=O)c2cnn3ccc(N[C@@H]4CCCC[C@@H]4N)nc23)c(C#N)n1`, in series [1], the apparent permeability coefficient (Papp) worked out at 17 ×10⁻⁶ cm/s. In turn, `Cn1cc(NC(=O)c2cnn3ccc(N4CC[C@H](F)[C@@H](N)C4)nc23)c(C(F)(F)F)n1` returned a Papp in series [1] of 28 ×10⁻⁶ cm/s. Usually clearance stands for the rate of elimination divided by the concentration. For orientation: bioavailability means dose-corrected exposure relative to a reference, in per cent. High values mean much systemic uptake, low ones little systemic uptake. The molecule `Cn1cc(NC(=O)c2cnn3ccc(N[C@@H]4CCCC[C@@H]4N)nc23)c(C(F)(F)F)n1` came in with a Papp in series [1] of 16 ×10⁻⁶ cm/s. Also, the clearance in series [2] was determined as 98 mL/min/kg. In series [3], this molecule gave a bioavailability of 5%. Molecule `Cn1cc(NC(=O)c2cnn3ccc(N[C@@H]4CCCC[C@@H]4N)nc23)c(C(N)=O)n1` registered a clearance in series [2] of 56 mL/min/kg. The molecule also had a bioavailability in series [3] of 0%. The apparent permeability (Papp) in series [4] is 2 ×10⁻⁶ cm/s.

In turn, `Cn1cc(NC(=O)c2cnn3ccc(N[C@H]4CCCC[C@H]4N)nc23)c(C(N)=O)n1` gave an apparent permeability coefficient (Papp) in series [1] of under 2 ×10⁻⁶ cm/s. On the same count and under the same terms, in the case of `Cn1cc(NC(=O)c2cnn3ccc(N[C@@H]4CCCC[C@@H]4N)nc23)c(C(F)F)n1` it was 13 ×10⁻⁶ cm/s.

For `Cn1cc(NC(=O)c2cnn3ccc(N[C@@H]4CCC(F)(F)C[C@@H]4N)nc23)c(C(F)(F)F)n1`, in series [1], the Papp was 26 ×10⁻⁶ cm/s.

For the molecule `Cn1cc(NC(=O)c2cnn3ccc(N[C@@H]4CCCC(F)(F)[C@@H]4N)nc23)c(C(F)F)n1`, the Papp in series [1] was 29 ×10⁻⁶ cm/s. Moreover, the clearance in series [2] was 29 mL/min/kg. The molecule also returned a bioavailability in series [3] of 46%.
